Laboratory results published in US11406644B2, “Tropomyosin-related kinase (TRK) inhibitors” (Genzyme Corporation, priority 2013, dated 2022).
Structures can show the parent of a compound that is named as a salt.

Experiments:
TrkA = TrkA (Homo sapiens (Human), UniProt P04629); experiment: TrkA activity, off-chip mobility shift assay (LabChip 3000); format: biochemical; settings: 200 pM TrkA, 55 μM ATP (ATP Km)
Description: (§1) Reagents and consumables were purchased from Sigma Aldrich, Carna Biosciences, or Caliper Life Sciences. All assay reaction conditions for IC50 determinations were within the linear range with respect to time and enzyme concentration. […] The LabChip 3000 separates and measures the fluorescent signal of fluorescein labeled peptide substrate and fluorescein labeled peptide product present in each well. Results are expressed as percent conversion by measuring peak height for both the substrate and product and dividing the product peak height by the sum of peak heights for both substrate and product.

TrkB = TrkB (Homo sapiens (Human), UniProt Q16620); experiment: TrkB activity, off-chip mobility shift assay (LabChip 3000); format: biochemical; settings: 300 pM TrkB, 70 μM ATP (ATP Km)
Description: as §1

[1] = tested on: Male Lewis rats with PGPS knee arthritis; experiment: Reactivated peptidoglycan-polysaccharide (PGPS) knee arthritis; format: in vivo, rat
Description: Male Lewis rats were acclimated to the testing facility for 7 days. The rats were housed in 5 per cage in shoe-box polycarbonate cages with wire tops, wood chip bedding and suspended food and water bottles.
On day −21, the male Lewis rats were randomized into treatment groups by body weight. The rats were anesthetized and injected with peptidoglycan-polysaccharide (PGPS) into the right knee to induce PGPS arthritis. Arthritis was reactivated on days 0 and 14 by an IV tail injection of PGPS.
The rats were weighed at baseline on days 0, 4, 14 and 18. Knee thickness was measured by caliper at baseline and on days 0, 2, 4, 14, 16 and 18. Gait analysis occurred on days 0-4 and 14-18, with video recording of selected animals on days 3 and 17. Gait analysis was performed by applying ink to the ventral surface of the foot and documenting weight bearing during movement across paper.
The animals were terminated at day 18. Right knees were removed, trimmed of extraneous tissue, and collected into 10% neutral buffered formalin. After two days in the formalin buffer and three days in 10% formic acid decalcifier, the knees were cut into two approximately equal halves in the frontal plane and processed for paraffin embedding and stained with T. Blue. Histological examinations were subsequently performed for bone resorption, inflammation, pannus and cartilage damage.
Body weights, gait deficiency and caliper measurements were analyzed using a one-way analysis of variance (1-way ANOVA) with Dunnett's multiple comparison post-test. Gait scores were analyzed using a Kruskal-Wallis test (non-parametric ANOVA) with Dunn's multiple comparison post-test. Histopathology scores were analyzed using a Kruskal-Wallis test (non-parametric ANOVA) with Dunn's multiple comparison post-test.

[2] = tested on: Male Wistar rats with MIA induced osteoarthritis; experiment: Monosodium iodoacetate (MIA) induced osteoarthritis; format: in vivo, rat; settings: for MIA/LRS placebo group compared with treated group at day 35: p<0.05
Description: Male Wistar rats were acclimated to the testing facility for 5 days. The rats were individually housed in micro-isolator shoe-box polycarbonate cages with cob bedding and water bottles. Dry pelleted food of known composition and nutritional components was provided ad libitum
Animals were randomized by treatment type using an online random number generator. Each treatment group was assigned a number, entered into the random number generator, recorded then translated back to the associated treatment. All injections were given in the left leg unless the treatment indicated “Contralateral” in which case the injection was given in the right leg. Both legs were shaved on all animals at the time of the treatment injections to blind the test administrator.
The rats were weighed the day prior to injection with monosodium iodoacetate (MIA), the agent used to induce osteoarthritis in the animals. The day of injection, rats from groups 2-8 received a subcutaneous (SC) dose of buprenorphine at least one hour prior to induction. […] Naïve animals were then placed in recovery. All other animals received an injection of MIA. In animals receiving MIA, the hind leg was flexed and an injection of MIA (25 μL) was injected into the intra-articular space using a 27 gauge ½ Inch Needle. Standard postoperative care was performed (twice daily for 48 hours).
On Day 8 the test article was administered as described above. On Days −1, 7, 14, 21, 28, and 35 post-induction, weight bearing was assessed. A weight bearing scale was utilized using a plexiglass chamber to assess the amount of weight distributed in each hind limb. The animals were acclimated to the chamber for at least 5 minutes prior to testing and the weight distribution was recorded 5 times.
The animals were terminated at day 36. Both stifles were collected from each animal; the skin was removed from the joint and the patella was removed while leaving as much of the fat pad intact with the joint. The stifle was placed in the appropriate cassette with rolled gauze to secure the stifle in the cassette and then placed into 4% Paraformaldehyde. These samples were examined histologically.

[3] = 0.06 mg intra-articular on day −7

Sequence of TrkB (Q16620 456-822): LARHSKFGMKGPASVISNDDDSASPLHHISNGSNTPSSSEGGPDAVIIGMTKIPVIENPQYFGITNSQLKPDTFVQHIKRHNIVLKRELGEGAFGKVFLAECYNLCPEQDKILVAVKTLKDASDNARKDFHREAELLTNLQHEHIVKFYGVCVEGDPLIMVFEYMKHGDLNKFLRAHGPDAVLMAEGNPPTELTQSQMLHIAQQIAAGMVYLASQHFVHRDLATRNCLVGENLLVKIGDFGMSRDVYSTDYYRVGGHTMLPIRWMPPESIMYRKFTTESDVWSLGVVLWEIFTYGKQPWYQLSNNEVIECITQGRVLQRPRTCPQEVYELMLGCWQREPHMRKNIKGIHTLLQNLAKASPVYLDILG
Sequence of TrkA (P04629 442-796): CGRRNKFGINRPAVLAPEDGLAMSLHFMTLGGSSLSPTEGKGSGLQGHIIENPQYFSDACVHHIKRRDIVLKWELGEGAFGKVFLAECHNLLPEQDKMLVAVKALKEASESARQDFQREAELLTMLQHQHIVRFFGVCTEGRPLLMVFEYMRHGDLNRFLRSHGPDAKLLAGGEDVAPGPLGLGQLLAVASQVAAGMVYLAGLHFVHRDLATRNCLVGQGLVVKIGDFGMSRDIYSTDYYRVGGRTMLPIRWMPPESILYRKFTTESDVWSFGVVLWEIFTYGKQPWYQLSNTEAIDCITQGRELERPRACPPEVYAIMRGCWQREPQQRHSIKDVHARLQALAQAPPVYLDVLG

## COc1ccc(COc2ccc(Cn3cnc4cc(-c5cnn(C6CCNCC6)c5)ccc43)cc2OC)cn1 [Ex. 3-5]
TrkA
  IC50: 6 nM
TrkB
  IC50: 5 nM

## COc1ccc(COc2ccc(Cn3c(N)nc4cc(-c5cnn(C)c5)cnc43)cc2OC)cc1 [Ex. 3-15, 3-(3-Methoxy-4-((4-methoxybenzyl)oxy)benzyl)-6-(1-methyl-1H-pyrazol-4-yl)-3H-imidazo[4,5-b]pyridin-2-amine]
[1]; 1 mg intra-articular on day −7
  knee caliper AUC values: generally unaffected
  reduction of gait AUC values (scores and deficiency), first reactivation: 92-93%
  reduction of gait AUC values (scores and deficiency), second reactivation: 85-86%
[1]; 1 mg intra-articular on day −7, day 14 (just prior to second reactivation)
  knee caliper measurements: significantly reduced
[1]; 1 mg intra-articular on day −7, days 15, 17 and 18
  reductions in gait deficiency, second reactivation: significant
[1]; 1 mg intra-articular on day −7, throughout first reactivation
  gait scores and deficiency, first reactivation: significant reductions
[1]; 1 mg intra-articular on day −7, throughout second reactivation
  gait scores, second reactivation: significantly reduced
[2]; 10 μg Contralateral injection
  efficacy (weight bearing): efficacy at 3 and 4 weeks
[2]; 10 μg Ipsilateral injection
  efficacy (weight bearing): efficacy was observed at 2 through 4 weeks
[2]; 30 μg Contralateral injection
  efficacy (weight bearing): efficacy at only the 3 week timepoint
[2]; 30 μg Ipsilateral injection
  efficacy (weight bearing): effective throughout the four weeks following administration
[2]; 30 μg Ipsilateral
  MIA/LRS placebo group compared with treated group at day 35: significantly worse
[2]; 100 μg Contralateral injection, 1-4 weeks
  systemic pain relief (weight bearing): did not show systemic pain relief at any timepoint
[2]; 100 μg Ipsilateral injection
  efficacy (weight bearing): effective throughout the four weeks following administration
[2]; 100 μg Ipsilateral
  MIA/LRS placebo group compared with treated group at day 35: significantly worse
[2]; intra-articular 10-100 μg on day 8
  body weight results, adverse observations due to treatment: No adverse observations
[2]; stifles collected at day 36
  histopathology of knee joint, adverse changes: no adverse changes

## COc1ccc(-c2cnc3c(c2)ncn3Cc2ccc(OC(C)c3ccc(OC)nc3)c(OC)c2)cn1 (centres unmarked) [Ex. 3-58-2, 3-(3-methoxy-4-(1-(6-methoxypyridin-3-yl)ethoxy)benzyl)-6-(6-methoxypyridin-3-yl)-3H-imidazo[4,5-b]pyridine formate]
TrkB
  IC50: 610 nM

## C[C@]12C=CC(=O)C=C1CC[C@H]1[C@@H]3C[C@@H](O)[C@](O)(C(=O)CO)[C@@]3(C)C[C@H](O)[C@@]12F [Triamcinolone, reference compound]
[1]; [3]
  reduction of gait AUC values, each reactivation calculated separately: 74-99%
  reduction of gait AUC values, summed: 88-92%
  reductions in knee caliper AUC: 53-106%
